“Also recorded” adds a separate entry of the source. Residues, ends and D or L forms follow the SMILES beside them. *: point of attachment. Cbz = O=C(OCc1ccccc1)*; CH2F = FC*
Assays:
[1] = system: MC38 cells; assay: TNFα-induced killing of MC38 cells, cell viability (CCK-8); type: cell-based, mouse; conditions: for TNFα-mediated killing in Rb1cc1 KO cells: Rb1cc1 KO MC38 cells, 25 μM z-VAD-FMK or 50 μM Nec-1
Experimental: (§1) The effects of TNFα, TRAIL, doxorubicin or paclitaxel on cell viability were assessed following 24 hour incubations at the indicated concentrations. The effects of 5 μM autophinib or SAR-405 on TNFα (10 ng/ml) or TRAIL (10 ng/ml or 50 ng/ml) induced killing were assessed following 24 hour incubations unless otherwise indicated. In all cases, cell viability was measured using CCK8 cell counting kit-8 (CCK-8) reagent, which is reduced by dehydrogenase activities in cells to give a yellow-colored formazan dye (Dojindo). The absorbance was measured using a SpectraMax M3 microplate reader (Molecular Devices).

[2] = system: ZR-75-1 human breast cancer cells; assay: Western blots of ZR-75-1 cells (p62, caspase-8); type: cell-based; conditions: 5 μM inhibitor, 16 hours; for p62 levels: ZR-75-1 cells; for TNFα-induced activation of caspase-8: human breast cancer cells ZR-75-1, 10 ng/ml TNFα
Experimental: (§2) Whole cell lysates were prepared in tris-glycine SDS sample buffer (ThermoFisher) containing 5% 2-mercaptoethanol. Western blotting was performed by conventional techniques using tris-glycine polyacrylamide SDS gels (ThermoFisher) and PVDF membranes (BioRad). Blots were blocked in 5% milk powder and 0.5% Tween-20 in TBS and then incubated overnight with primary antibodies. After addition of secondary antibodies, membranes were incubated with SuperSignal West Pico Plus or Femto substrate (ThermoFisher) and luminescence was captured with a C300 imager (Azure Biosystems). Primary antibodies against TAK1, Rbck1, Re1A p65, Rb1cc1, Atg12, cleaved caspase-8, procaspase-8, RIPK1, RIPK1 phospo-Ser321, RIPK1 phospho-Ser166, Iκ-Bα, A20, p62, phospho-p65, LC3B, TNFR1 (CST), Atg9a (Novus), cIAP1 (Enzo), β2M (ThermoFisher), FADD and ICAM (Abcam) were used. Horseradish peroxidase-conjugated β-Actin antibody and secondary antibodies against mouse IgG, rabbit IgG and goat IgG were from Santa Cruz Biotechnology.

[3] = system: MC38 cells; assay: Western blots of MC38 cell lysates (caspase-8, p62, Iκ-Bα, phospho-S6); type: cell-based, mouse; conditions: 5 μM autophinib
Experimental: as §2

[4] = system: multiple mouse and human cancer cell lines; assay: TNFα-mediated killing in a panel of cancer cell lines with or without autophagy inhibitor; type: cell-based; conditions: 10 ng/ml TNFα, 5 μM inhibitor, 24 hours, EMT6, LL/2, CT26, Colon26, BT-20, Me-180, MDA-MB-361, ZR-75-1
Experimental: as §1

[5] = system: HCT-116 and HeLa human cancer cells; assay: TNFα- and TRAIL-mediated killing of human cancer cells with or without autophinib, cell viability; type: cell-based; conditions: 5 μM autophinib, 24 hours
Experimental: as §1

[6] = system: HCT-116 and HeLa human cancer cells; assay: Western blots of HCT-116 and HeLa cells after TRAIL with or without autophinib; type: cell-based; conditions: human cancer cells (HCT-116, HeLa), 10 or 50 ng/ml TRAIL, 24 hours
Experimental: as §2

[7] = system: ZR-75-1 human breast cancer cells; assay: CD3 bispecific antibody-induced killing of ZR-75-1 cells by human T cells; type: cell-based; conditions: 12 ng/ml bispecific antibody, 5 μM SAR-405, 24 hours
From the text: CD8^+ T cells were isolated from spleens and lymph nodes of 6-8 week old male OT-1 mice. These mice contain transgenic inserts for mouse Tcra-V2 and Tcrb-V5 genes. The transgenic T cell receptor was designed to recognize ovalbumin peptide residues 257-264 in the context of H-2Kb MHC class I protein. In some experiments, human CD8+ T cells were isolated from PBMCs. T cells were activated in vitro with CD3/CD28 beads at a 1:2 bead:cell ratio for 2-3 days. T cells were activated in RPMI-1640 medium containing 20 ng/ml mouse IL-2, 10% heat inactivated fetal bovine serum, 20 mM HEPES, 2 mM L-glutamine, 1 mM sodium pyruvate, 0.05 mM 2-mercaptoethanol and 50 U/ml penicillin/streptomycin. For human tumor cell killing experiments using CD3 bispecific antibody, human T cells were isolated from peripheral blood mononuclear cells (PBMCs) (ReachBio) using Dynabeads Untouched Human T Cells Kit (Thermo Fisher Scientific).
Human ZR-75-1 cells were seeded at 100,000 cells per 24 well. After 24 hours, cells were incubated with activated CD8^+ T cells (isolated from human PBMCs) at the indicated E:T ratios for 24 hours in the presence of 12 ng/ml breast tumor antigen×CD3 or control (doesn't bind to ZR-75-1 cells) bispecific antibodies in the absence or presence of 5 μM autophagy inhibitor SAR-405.

[8] = system: CT26, B16F10, 4T1, EMT6, MC38 tumor cell lines; assay: TNFα-induced caspase-8 activation and apoptosis in a panel of tumor cell lines; type: cell-based, mouse; conditions: 24 hours
Experimental: as §1
Whole cell lysates were prepared in tris-glycine SDS sample buffer (ThermoFisher) containing 5% 2-mercaptoethanol. Western blotting was performed by conventional techniques using tris-glycine polyacrylamide SDS gels (ThermoFisher) and PVDF membranes (BioRad). Blots were blocked in 5% milk powder and 0.5% Tween-20 in TBS and then incubated overnight with primary antibodies. After addition of secondary antibodies, membranes were incubated with SuperSignal West Pico Plus or Femto substrate (ThermoFisher) and luminescence was captured with a C300 imager (Azure Biosystems). […]

## CN1C(=O)C(Cc2c[nH]c3ccccc23)NC1=S (stereo not drawn) [necropsis inhibitor]
[1]; 24 hours
  TNFα-mediated killing in Rb1cc1 KO cells: had no effect

## Cc1cc(Nc2cc(Cl)nc(Oc3ccc([N+](=O)[O-])cc3)n2)n[nH]1 [autophinib]
[2]
  p62 levels: significantly increased
  TNFα-induced activation of caspase-8: enhanced
[3]; 10 ng/ml TNFα 30 minutes
  TNFα-mediated degradation of Iκ-Bα: did not affect
[3]; 10 ng/ml TNFα 4 hours
  TNFα-mediated caspase-8 activation: increased
[3]; 4 hours
  levels of p62: significantly increased
[1]; MC38 cells, 10 ng/ml TNFα, 5 μM autophinib, 16 hours
  TNFα-mediated killing (relative cell viability): increased
[4]
  killing by TNFα in multiple mouse and human cancer cell lines: significantly increased; also recorded: sensitizes
[5]; HCT-116 (10 ng/ml TNFα or TRAIL), HeLa (50 ng/ml TRAIL)
  sensitization to TNFα- and TRAIL-mediated killing: sensitizes
[5]; human cancer cells (HCT-116, HeLa), 10 or 50 ng/ml TRAIL
  induction of apoptosis by TRAIL: increased
[6]
  activation of caspase-8 by TRAIL: increased

## COC(=O)C[C@H](NC(=O)[C@H](C)NC(=O)[C@@H](NC(=O)OCc1ccccc1)C(C)C)C(=O)CF [z-VAD-FMK] (Cbz-Val-Ala-Asp(OMe)-CH2F)
[1]; 25 μM z-VAD-FMK, 10 ng/ml TNFα, 24 hours
  TNFα killing of MC38 cells in presence of caspase inhibitor: blocked
[1]; 24 hours
  TNFα-mediated killing in Rb1cc1 KO cells: blocked

## C[C@@H]1COCCN1c1cc(=O)n2c(n1)N(Cc1cncc(Cl)c1)[C@H](C(F)(F)F)CC2 [SAR405]
[2]
  p62 levels: significantly increased
  TNFα-induced activation of caspase-8: enhanced
[4]
  killing by TNFα in multiple mouse and human cancer cell lines: significantly increased
[4]; listed as SAR-405
  killing by TNFα in multiple mouse and human cancer cell lines: sensitizes
[7]
  tumor cell killing by human T cells with breast tumor antigen×CD3 bispecific antibody: significantly increased

B1: TNFα: Recombinant mouse and human TNFα from PeproTech (protein)
chain: LRSSSQNSSDKPVAHVVANHQVEEQLEWLSQRANALLANGMDLKDNQLVVPADGLYLVYSQVLFKGQGCPDYVLLTHTVSRFAISYQEKVNLLSAVKSPCPKDTPEGAELKPWYEPIYLGGVFQLEKGDQLSAEVNLPKYLDFAESGQVYFGVIAL
[8]; CT26, B16F10, 4T1 cells
  killing by TNFα: not killed
[8]; EMT6 and MC38 cells
  TNFα-induced caspase-8 activation and apoptosis: exhibited TNFα-induced caspase-8 activation and apoptosis
[1]; 10 ng/ml TNFα, 24 hours
  MC38 cell death by soluble TNFα: promoted MC38 cell death

— patent US11965161B2, “Methods and compositions for sensitization of tumor cells to immune therapy” (Regeneron Pharmaceuticals, Inc., priority 2020, dated 2024)
